Experimental data as given in patent US20230279426A1, “MODIFIED VIRAL COMPOSITIONS FOR VIRAL TRANSDUCTION” (Lycia Therapeutics, Inc., priority 2020, published 2023).

What was measured:
[1] = target: T1, recombinant human CI-M6PR protein (Homo sapiens, UniProt P11717); test: M6PR binding ELISA of matuzumab ligand-linker conjugates; conditions: conjugates of ligand linkers
T1 construct: purchased R&D 6418-GR-050
Protocol: Binding affinity of matuzumab conjugated to ligand-linkers for M6PR w as determined by ELISA using the following protocol: Nunc black solid bottom MaxiSorp plates were allowed to incubate overnight at 4° C. coated with 1 μg/mL of recombinant human CI-M6PR protein (R&D, 6418-GR-050) in 50 μL PBS. The next day, coating was decanted and plates were washed 3× with PBS. Wells were blocked with 350 μL of 3% BSA-PBS for 1 hour at room temperature. Blocking solution was removed and matuzumab conjugates (matuzumab-Compound I-7 (d4), matuzumab-Compound I-7 (d8), matuzumab-Compound I-8 (d4), matuzumab-Compound I-9 (d4), matuzumab-Compound I-11 (d4) and matuzumab-Compound I-12 (d4)) and their respective isotype controls (human IgG (bioxcell, BP0297) conjugated to the ligand-linker compounds being tested) were diluted in 3% BSA-PBS. 50 µL of diluted conjugates were added to the plate and allowed to incubate at room temperature for 2 hours. After incubation, solutions in plate were decanted and washed with […] of 0.05% PBS-Tween20 three times, drying the plate each wash on a clean paper towel. 50 μL of peroxidase AffiniPure Mouse Anti-Human IgG (Jackson Immuno, 209-035-088) diluted in 3% BSA-PBS to 0.2 μg/mL was added to the plate and allowed to incubate for 1 hour at room temperature in the dark. […]

Jurkat cells = test: Intracellular uptake of anti-IgG2a conjugates with IgG2a-Alexa488 in Jurkat cells; format: cell-based, human; conditions: 1 h and 24 h
Protocol: Anti-IgG2a conjugates were generated by adding anti-IgG2a rIgG1 (Southern Biotech, Cat #1155-ol) to a solution of PBS buffer pH 7.2 containing 10% DMSO (final antibody concentration 5 mg/mL). Linker (e.g., Compound I-7) was added (at a 5-40× linker:antibody molar ratio), and the reaction was incubated at room temperature for 3 hours. Excess linker was removed by size exclusion chromatography (Superdex 200 Increase. Cat i28990944) and final DAR, was determined by LC/MS (Sciex 5600+. Acquity UPLC BEH C4 column. Cat #186004495). The resulting rIgG1 antibody conjugates were used in the experiments below.
The anti-IgG2a conjugates were bound to IgG2a-Alexa488, as follows: equal molar ratios of anti-IgG2a and IgG2a-Alexa488 were added in tissue culture media for 30 minutes at room temperature. The resulting anti-IgG2a:IgG2a antibody-Alexa488 compositions were added to Jurkat cells (100k cells/50 ul per well, n=2), and Alexa488 fluorescence levels were measured (via Alexa488 measurement) at 1 hour and 24 hours by flow cytometry. Because Alexa488 accumulates in cells, this presents a way to measure total intracellular uptake by cells over time.

T1 sequence (P11717 41-2491): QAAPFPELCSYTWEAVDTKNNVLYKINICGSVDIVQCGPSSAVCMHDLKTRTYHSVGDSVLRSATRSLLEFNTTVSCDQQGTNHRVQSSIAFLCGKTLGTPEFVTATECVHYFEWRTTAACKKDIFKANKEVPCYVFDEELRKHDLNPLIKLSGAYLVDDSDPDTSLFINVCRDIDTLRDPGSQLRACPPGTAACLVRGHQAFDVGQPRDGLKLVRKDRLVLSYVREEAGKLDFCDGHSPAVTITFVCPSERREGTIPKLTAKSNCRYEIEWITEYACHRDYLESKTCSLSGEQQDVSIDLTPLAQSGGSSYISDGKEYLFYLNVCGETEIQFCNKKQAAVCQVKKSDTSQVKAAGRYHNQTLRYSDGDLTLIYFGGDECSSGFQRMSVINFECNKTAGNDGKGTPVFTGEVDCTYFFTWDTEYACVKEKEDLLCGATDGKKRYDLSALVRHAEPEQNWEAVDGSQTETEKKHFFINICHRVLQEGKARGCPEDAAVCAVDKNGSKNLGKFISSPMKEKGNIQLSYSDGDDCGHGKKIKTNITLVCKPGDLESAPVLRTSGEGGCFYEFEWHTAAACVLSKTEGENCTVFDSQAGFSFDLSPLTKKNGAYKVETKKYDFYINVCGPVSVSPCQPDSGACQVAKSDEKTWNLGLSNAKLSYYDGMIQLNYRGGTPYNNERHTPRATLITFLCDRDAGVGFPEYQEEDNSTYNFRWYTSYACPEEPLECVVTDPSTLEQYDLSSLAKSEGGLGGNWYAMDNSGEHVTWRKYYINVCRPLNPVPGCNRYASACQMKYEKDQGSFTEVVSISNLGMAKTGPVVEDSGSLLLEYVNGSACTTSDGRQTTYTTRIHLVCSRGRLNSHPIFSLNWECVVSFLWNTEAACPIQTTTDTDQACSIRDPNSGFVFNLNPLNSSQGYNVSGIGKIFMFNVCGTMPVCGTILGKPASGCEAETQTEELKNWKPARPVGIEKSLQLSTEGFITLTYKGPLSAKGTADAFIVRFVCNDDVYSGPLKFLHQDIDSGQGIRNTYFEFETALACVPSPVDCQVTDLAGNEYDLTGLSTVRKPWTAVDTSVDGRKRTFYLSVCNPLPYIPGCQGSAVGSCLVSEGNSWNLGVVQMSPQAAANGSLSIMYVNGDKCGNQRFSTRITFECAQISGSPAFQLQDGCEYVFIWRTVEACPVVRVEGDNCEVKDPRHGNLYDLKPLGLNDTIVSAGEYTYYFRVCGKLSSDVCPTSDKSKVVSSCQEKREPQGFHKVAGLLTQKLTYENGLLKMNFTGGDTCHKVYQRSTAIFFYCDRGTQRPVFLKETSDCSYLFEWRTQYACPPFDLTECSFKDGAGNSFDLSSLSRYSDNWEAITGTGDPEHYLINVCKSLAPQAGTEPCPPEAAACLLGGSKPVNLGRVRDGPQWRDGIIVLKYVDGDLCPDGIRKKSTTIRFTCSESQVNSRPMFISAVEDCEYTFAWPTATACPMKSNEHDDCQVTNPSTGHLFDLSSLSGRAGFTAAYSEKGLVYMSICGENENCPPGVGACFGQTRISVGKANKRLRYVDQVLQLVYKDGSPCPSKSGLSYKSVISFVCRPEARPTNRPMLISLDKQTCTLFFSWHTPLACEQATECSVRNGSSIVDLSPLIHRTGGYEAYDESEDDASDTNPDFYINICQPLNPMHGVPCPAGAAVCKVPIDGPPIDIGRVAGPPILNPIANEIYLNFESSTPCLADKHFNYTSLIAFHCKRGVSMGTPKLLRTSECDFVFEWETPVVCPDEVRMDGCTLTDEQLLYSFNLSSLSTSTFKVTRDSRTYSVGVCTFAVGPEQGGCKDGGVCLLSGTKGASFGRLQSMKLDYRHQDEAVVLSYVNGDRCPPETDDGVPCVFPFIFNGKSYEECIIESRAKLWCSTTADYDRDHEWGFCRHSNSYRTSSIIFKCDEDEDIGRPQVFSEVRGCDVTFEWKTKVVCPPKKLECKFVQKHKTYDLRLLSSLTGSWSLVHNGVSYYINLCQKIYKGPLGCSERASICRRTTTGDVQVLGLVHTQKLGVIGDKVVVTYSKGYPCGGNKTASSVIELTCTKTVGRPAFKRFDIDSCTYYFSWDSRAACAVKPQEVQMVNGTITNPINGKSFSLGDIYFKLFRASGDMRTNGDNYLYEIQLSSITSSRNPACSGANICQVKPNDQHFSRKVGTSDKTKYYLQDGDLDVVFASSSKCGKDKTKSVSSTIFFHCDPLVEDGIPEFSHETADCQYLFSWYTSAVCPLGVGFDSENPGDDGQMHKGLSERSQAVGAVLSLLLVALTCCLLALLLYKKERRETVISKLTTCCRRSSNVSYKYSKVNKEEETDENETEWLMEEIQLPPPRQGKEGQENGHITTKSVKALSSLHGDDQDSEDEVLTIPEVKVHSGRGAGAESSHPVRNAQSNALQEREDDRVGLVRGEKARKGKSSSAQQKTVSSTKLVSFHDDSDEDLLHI

| SMILES | binding affinity to M6PR relative to Compound I-7 [1] | intracellular uptake (Alexa488 fluorescence) (Jurkat cells) |
| --- | --- | --- |
| O=C(CCN1C(=O)C=CC1=O)NCCOCCOCCOCCn1cc(CCO[C@H]2O[C@H](CCP(=O)(O)O)[C@@H](O)[C@H](O)[C@@H]2O)nn1 [Compound I-10] | weaker binding affinity to M6PR than Compound I-7 | sufficiently robust uptake |
| O=C(CCOCCn1cc(CCO[C@H]2O[C@H](CCP(=O)(O)O)[C@@H](O)[C@H](O)[C@@H]2O)nn1)Oc1c(F)c(F)c(F)c(F)c1F [Compound I-11] | weaker binding affinity to M6PR than Compound I-7 | sufficiently robust uptake |
